Patent publication US20260265238A1, “COMPOUNDS AND PHARMACEUTICAL COMPOSITIONS THAT DEGRADE SWI/SNF-RELATED MATRIX-ASSOCIATED ACTIN-DEPENDENT REGULATOR OF CHROMATIN SUBFAMILY A” (Plexium, Inc., priority 2023, published 2026)

What was measured:
[1] = target: T1, SMARCA2-HiBiT HeLa cells (protein which is expressed from the SMARCA2 gene) (Homo sapiens, UniProt P51531); assay: SMARCA2 degradation assay (HiBiT-fusion HeLa cell line, 24 h, luminescence); format: cell-based
T1 construct: protein which is expressed from the SMARCA2 and SMARCA4 genes; host or cells: HeLa (SMARCA2-HiBiT engineered line)
In short: (§1)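 SMARCA2- or SMARCA4-HiBiT HeLa cells seeded overnight at 37° C, then given compound as a 10-point dilution (typically 10 μM to 300 pM) for 24 h at 37° C. Protein level read by HiBiT lytic detection luminescence; DC50 from dose-response curves; degradation also scored at 1 μM.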

[2] = target: T2, SMARCA4-HiBiT HeLa cells (protein which is expressed from the SMARCA4 gene) (Homo sapiens, UniProt P51532); assay: SMARCA4 degradation assay (HiBiT-fusion HeLa cell line, 24 h, luminescence); format: cell-based
T2 construct: protein which is expressed from the SMARCA2 and SMARCA4 genes; host or cells: HeLa (SMARCA4-HiBiT engineered line)
In short: as §1

T2 sequence (P51532 whole entry, the tested form may be a part): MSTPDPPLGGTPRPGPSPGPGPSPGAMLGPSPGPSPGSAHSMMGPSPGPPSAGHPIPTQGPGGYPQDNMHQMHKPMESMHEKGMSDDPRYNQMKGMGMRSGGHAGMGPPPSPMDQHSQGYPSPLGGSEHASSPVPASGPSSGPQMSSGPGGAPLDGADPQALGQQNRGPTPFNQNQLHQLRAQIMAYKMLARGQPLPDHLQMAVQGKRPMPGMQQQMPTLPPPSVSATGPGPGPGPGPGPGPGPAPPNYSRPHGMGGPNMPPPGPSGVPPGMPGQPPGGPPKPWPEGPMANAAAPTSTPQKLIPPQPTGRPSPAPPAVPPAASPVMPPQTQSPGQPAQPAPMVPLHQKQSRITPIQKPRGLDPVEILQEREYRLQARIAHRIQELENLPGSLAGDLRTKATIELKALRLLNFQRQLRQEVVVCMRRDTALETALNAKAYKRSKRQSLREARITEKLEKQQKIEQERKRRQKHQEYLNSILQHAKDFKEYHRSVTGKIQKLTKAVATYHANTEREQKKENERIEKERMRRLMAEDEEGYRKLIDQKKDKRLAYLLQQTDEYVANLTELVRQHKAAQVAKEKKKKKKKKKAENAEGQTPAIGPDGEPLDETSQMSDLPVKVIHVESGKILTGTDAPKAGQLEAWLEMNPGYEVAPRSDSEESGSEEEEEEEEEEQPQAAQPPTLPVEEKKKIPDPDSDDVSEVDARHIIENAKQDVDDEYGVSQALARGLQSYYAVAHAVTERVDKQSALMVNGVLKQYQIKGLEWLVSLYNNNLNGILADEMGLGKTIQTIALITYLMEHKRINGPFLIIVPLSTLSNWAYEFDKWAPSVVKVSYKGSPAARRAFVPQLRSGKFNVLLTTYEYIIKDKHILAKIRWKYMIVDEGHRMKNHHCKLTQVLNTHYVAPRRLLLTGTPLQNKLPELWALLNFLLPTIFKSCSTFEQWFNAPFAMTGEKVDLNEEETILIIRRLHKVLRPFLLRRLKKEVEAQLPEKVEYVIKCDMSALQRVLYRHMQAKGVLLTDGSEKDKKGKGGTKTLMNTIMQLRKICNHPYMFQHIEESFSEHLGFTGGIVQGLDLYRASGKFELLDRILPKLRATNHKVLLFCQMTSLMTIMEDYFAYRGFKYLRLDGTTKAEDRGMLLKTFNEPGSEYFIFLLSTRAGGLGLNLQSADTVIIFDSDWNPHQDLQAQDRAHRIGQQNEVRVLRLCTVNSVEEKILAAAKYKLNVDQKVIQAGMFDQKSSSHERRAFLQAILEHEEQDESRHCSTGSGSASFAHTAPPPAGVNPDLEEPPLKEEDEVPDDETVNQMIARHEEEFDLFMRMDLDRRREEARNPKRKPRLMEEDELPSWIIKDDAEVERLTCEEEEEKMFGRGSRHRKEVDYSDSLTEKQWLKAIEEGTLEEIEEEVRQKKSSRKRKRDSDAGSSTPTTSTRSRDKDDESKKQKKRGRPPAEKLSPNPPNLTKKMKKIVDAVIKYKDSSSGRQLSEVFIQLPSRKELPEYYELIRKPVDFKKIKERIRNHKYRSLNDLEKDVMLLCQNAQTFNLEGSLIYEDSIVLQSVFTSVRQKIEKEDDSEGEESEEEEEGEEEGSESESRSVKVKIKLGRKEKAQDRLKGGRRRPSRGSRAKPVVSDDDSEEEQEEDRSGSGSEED
T1 sequence (P51531 whole entry, the tested form may be a part): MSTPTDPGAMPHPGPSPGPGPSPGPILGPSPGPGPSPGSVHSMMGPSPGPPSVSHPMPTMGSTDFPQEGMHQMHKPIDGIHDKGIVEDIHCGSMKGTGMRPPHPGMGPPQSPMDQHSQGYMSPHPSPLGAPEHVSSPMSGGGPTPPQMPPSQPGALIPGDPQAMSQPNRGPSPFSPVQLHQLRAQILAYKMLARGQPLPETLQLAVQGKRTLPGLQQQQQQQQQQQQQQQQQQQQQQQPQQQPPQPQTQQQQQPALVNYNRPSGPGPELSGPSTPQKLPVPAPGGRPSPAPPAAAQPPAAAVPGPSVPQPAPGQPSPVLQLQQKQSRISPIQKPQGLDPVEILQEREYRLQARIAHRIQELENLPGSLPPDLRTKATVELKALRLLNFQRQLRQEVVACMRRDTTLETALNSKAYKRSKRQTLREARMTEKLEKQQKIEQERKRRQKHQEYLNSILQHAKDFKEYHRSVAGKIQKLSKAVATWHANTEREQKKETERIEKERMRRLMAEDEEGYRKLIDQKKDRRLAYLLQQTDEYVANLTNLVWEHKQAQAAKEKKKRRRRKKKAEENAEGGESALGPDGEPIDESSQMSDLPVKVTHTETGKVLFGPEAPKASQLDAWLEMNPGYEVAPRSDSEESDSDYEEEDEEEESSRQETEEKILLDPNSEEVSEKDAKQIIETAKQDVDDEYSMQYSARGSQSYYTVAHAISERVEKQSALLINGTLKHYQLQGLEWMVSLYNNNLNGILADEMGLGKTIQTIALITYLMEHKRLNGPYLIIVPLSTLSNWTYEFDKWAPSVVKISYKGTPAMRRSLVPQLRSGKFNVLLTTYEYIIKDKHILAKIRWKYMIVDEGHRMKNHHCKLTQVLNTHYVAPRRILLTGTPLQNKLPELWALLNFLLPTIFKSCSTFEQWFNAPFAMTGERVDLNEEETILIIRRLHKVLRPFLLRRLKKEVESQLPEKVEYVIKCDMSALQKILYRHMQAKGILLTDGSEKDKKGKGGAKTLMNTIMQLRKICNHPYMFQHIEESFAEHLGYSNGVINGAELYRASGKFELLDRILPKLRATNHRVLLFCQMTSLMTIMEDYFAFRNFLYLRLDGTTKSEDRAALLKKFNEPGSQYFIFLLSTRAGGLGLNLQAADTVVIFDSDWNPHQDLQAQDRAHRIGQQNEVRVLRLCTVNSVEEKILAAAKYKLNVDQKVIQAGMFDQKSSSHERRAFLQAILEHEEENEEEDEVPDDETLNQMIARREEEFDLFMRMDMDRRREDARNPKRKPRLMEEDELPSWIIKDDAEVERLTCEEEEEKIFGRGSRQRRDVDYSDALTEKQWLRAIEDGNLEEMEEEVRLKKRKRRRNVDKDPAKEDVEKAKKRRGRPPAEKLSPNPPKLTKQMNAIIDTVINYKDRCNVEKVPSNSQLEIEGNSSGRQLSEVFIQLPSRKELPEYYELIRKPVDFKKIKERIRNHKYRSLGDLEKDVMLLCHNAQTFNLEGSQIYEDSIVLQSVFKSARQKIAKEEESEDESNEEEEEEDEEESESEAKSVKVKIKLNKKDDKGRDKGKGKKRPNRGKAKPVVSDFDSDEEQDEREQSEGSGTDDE

| Structure (SMILES) | DC50 [1] | SMARCA2 % Degradation @ 1 μM ([1]; @ 1 μM) | DC50 [2] | inhibition at 1 µM ([2]; @ 1 μM) | SMARCA2 % Degradation @ 1 μM ([1]; 1 μM) | inhibition at 1 µM ([2]; 1 μM) |
| --- | --- | --- | --- | --- | --- | --- |
| CN(C)CC#Cc1nccc(N2C3CCC2CN(c2cc(-c4ccccc4O)nnc2N)CC3)n1 (stereo not shown) [Compound P-157, o-[6-amino-5-(9-{2-[3-(dimethylamino)-1-propynyl]-4-pyrimidinyl}-3,9-diazabicyclo[4.2.1]non-3-yl)-3-pyridazinyl]phenol] | < 50 nM | ++ (++=30-70%) | 50 to 500 nM | 30 to 70% |  |  |
| Nc1nnc(-c2ccccc2O)cc1N1CC2(CCN(c3ccnc(C#CCNC(=O)c4cc5ncccn5n4)n3)CC2)C1 [Compound P-31, N-(3-(4-(2-(3-amino-6-(2-hydroxyphenyl)pyridazin-4-yl)-2,7-diazaspiro[3.5]nonan-7-yl)pyrimidin-2-yl)prop-2-yn-1-yl)pyrazolo[1,5-a]pyrimidine-2-carboxamide] | 50 to 500 nM | ++ (++=30-70%) | 50 to 500 nM | 30 to 70% |  |  |
| C[C@H]1CCN(c2cc(-c3ccccc3O)nnc2N)CCN1c1ccnc(C#CCNC(=O)c2cc3ncccn3n2)n1 [Compound P-102, (S)-N-(3-(4-(4-(3-amino-6-(2-hydroxyphenyl)pyridazin-4-yl)-7-methyl-1,4-diazepan-1-yl)pyrimidin-2-yl)prop-2-yn-1-yl)pyrazolo[1,5-a]pyrimidine-2-carboxamide] | 50 to 500 nM | +++ (+++=>70%) | < 50 nM | > 70% |  |  |
| C[C@@H]1CCN(c2cc(-c3ccccc3O)nnc2N)CCN1c1ccnc(C#CCN2CC3(COC3)C2)n1 [Compound P-213, o-{5-[(R)-5-methyl-4-(2-{3-(2-oxa-6-aza-6-spiro[3.3]heptyl)-1-propynyl}-4-pyrimidinyl)-1,4-diazepan-1-yl]-6-amino-3-pyridazinyl}phenol] | 50 to 500 nM | ++ (++=30-70%) | > 5000 nM | < 30% |  |  |
| Nc1nnc(-c2ccccc2O)cc1N1CCCN(c2ccnc(C#CCCNC(=O)c3cc4ncccn4n3)n2)CC1 [Compound P-23, N-(4-(4-(4-(3-amino-6-(2-hydroxyphenyl)pyridazin-4-yl)-1,4-diazepan-1-yl)pyrimidin-2-yl)but-3-yn-1-yl)pyrazolo[1,5-a]pyrimidine-2-carboxamide] | 50 to 500 nM | ++ (++=30-70%) | 50 to 500 nM | 30 to 70% |  |  |
| CC1CN(c2ccnc(C#CCNC(=O)c3cc4ncccn4n3)n2)CCN(c2cc(-c3ccccc3O)nnc2N)C1 (stereo not shown) [Compound P-27, N-(3-(4-(4-(3-amino-6-(2-hydroxyphenyl)pyridazin-4-yl)-6-methyl-1,4-diazepan-1-yl)pyrimidin-2-yl)prop-2-yn-1-yl)pyrazolo[1,5-a]pyrimidine-2-carboxamide] | 50 to 500 nM | +++ (+++=>70%) | 50 to 500 nM | > 70% |  |  |
| C[C@@H]1CN(c2ccnc(C#CCNC(=O)c3cc4ncccn4n3)n2)CCN1c1cc(-c2ccccc2O)nnc1N [Compound P-49, (R)-N-(3-(4-(4-(3-amino-6-(2-hydroxyphenyl)pyridazin-4-yl)-3-methylpiperazin-1-yl)pyrimidin-2-yl)prop-2-yn-1-yl)pyrazolo[1,5-a]pyrimidine-2-carboxamide] | > 5000 nM | + (+=<30%) | 500 to 5000 nM | < 30% |  |  |
| CC1(C)COCCN1CC#Cc1nccc(N2CCCN(c3cc(-c4ccccc4O)nnc3N)CC2)n1 [Compound P-317, 0-[6-amino-5-(4-{2-[3-(3,3-dimethyl-4-morpholinyl)-1-propynyl]-4-pyrimidinyl}-1,4-diazepan-1-yl)-3-pyridazinyl]phenol] | 50 to 500 nM | ++ (++=30-70%) | 500 to 5000 nM | < 30% |  |  |
| Nc1nnc(-c2ccccc2O)cc1N1CCCN(c2ccnc(C#CCNC(=O)c3cc4ncccn4n3)n2)CC1 [Compound P-76, N-(3-(4-(4-(3-amino-6-(2-hydroxyphenyl)pyridazin-4-yl)-1,4-diazepan-1-yl)pyrimidin-2-yl)prop-2-yn-1-yl)pyrazolo[1,5-a]pyrimidine-2-carboxamide] | 50 to 500 nM | +++ (+++=>70%) | 50 to 500 nM | > 70% |  |  |
| CC1(F)CCN(CC#Cc2nccc(N3CCC4(CC3)CCN(c3cc(-c5ccccc5O)nnc3N)C4)n2)C1 (stereo not shown) [Compound P-195, o-[6-amino-5-(8-{2-[3-(3-fluoro-3-methyl-1-pyrrolidinyl)-1-propynyl]-4-pyrimidinyl}-2,8-diaza-2-spiro[4.5]decyl)-3-pyridazinyl]phenol] | 50 to 500 nM | ++ (++=30-70%) | 50 to 500 nM | 30 to 70% |  |  |
| Cc1nn2ccn(CC#Cc3nccc(N4CCN(c5cnnc(-c6ccccc6O)c5)CC[C@H]4C)n3)c(=O)c2c1C [Compound P-235, 5-[3-(4-{ (R)-4-[6-(o-hydroxyphenyl)-4-pyridaziny1]-7-methyl-1,4-diazepan-1-yl}-2-pyrimidinyl)-2-propynyl]-2,3-dimethyl-1,5,7a-triaza-4(5H)-indenone] | 50 to 500 nM | + (+=<30%) | 500 to 5000 nM | < 30% |  |  |
| Cc1c(C(=O)NC/C=C/c2nccc(N3CCCN(c4cc(-c5ccccc5O)nnc4N)CC3)n2)nn(C)c1C [Compound P-111, (E)-N-(3-(4-(4-(3-amino-6-(2-hydroxyphenyl)pyridazin-4-yl)-1,4-diazepan-1-yl)pyrimidin-2-yl)allyl)-1,4,5-trimethyl-1H-pyrazole-3-carboxamide] | 50 to 500 nM | +++ (+++=>70%) | 50 to 500 nM | 30 to 70% |  |  |

Continued, values first:

| DC50 [1] | SMARCA2 % Degradation @ 1 μM ([1]; @ 1 μM) | DC50 [2] | inhibition at 1 µM ([2]; @ 1 μM) | SMARCA2 % Degradation @ 1 μM ([1]; 1 μM) | inhibition at 1 µM ([2]; 1 μM) | Structure (SMILES) |
| --- | --- | --- | --- | --- | --- | --- |
| 500 to 5000 nM | ++ (++=30-70%) | 500 to 5000 nM | < 30% |  |  | Cn1cc(C#Cc2nccc(N3CCCN(c4cc(-c5ccccc5O)nnc4N)CC3)n2)cn1 [Compound P-346, 0-[6-amino-5-(4-{2-[2-(1-methyl-4-pyrazolyl)ethynyl]-4-pyrimidinyl}-1,4-diazepan-1-yl)-3-pyridazinyl]phenol] |
| 50 to 500 nM | ++ (++=30-70%) | 500 to 5000 nM | 30 to 70% |  |  | CN1CCC(C#Cc2nccc(N3CCCN(c4cc(-c5ccccc5O)nnc4N)CC3)n2)CC1 [Compound P-256, o-[6-amino-5-(4-{2-[2-(1-methyl-4-piperidyl)ethynyl]-4-pyrimidinyl}-1,4-diazepan-1-yl)-3-pyridazinyl]phenol] |
| 50 to 500 nM | ?? | 50 to 500 nM | 30 to 70% |  |  | C/C=C/c1nccc(N2CCCN(c3cc(-c4ccccc4O)nnc3N)CC2)n1 [Compound P-158, o-(6-amino-5-{4-[2-(1-propenyl)-4-pyrimidinyl]-1,4-diazepan-1-yl}-3-pyridazinyl)phenol] |
| 50 to 500 nM | ++ (++=30-70%) | 50 to 500 nM | 30 to 70% |  |  | COC1CN(CC#Cc2nccc(N3CCCN(c4cc(-c5ccccc5O)nnc4N)CC3)n2)C1 [Compound P-309, 0-[6-amino-5-(4-{2-[3-(3-methoxy-1-azetidinyl)-1-propynyl]-4-pyrimidinyl}-1,4-diazepan-1-yl)-3-pyridazinyl]phenol] |
| 50 to 500 nM | +++ (+++=>70%) | 50 to 500 nM | > 70% |  |  | Nc1nnc(-c2ccccc2O)cc1N1CC2CCN(c3ccnc(C#CCNC(=O)c4cc5ncccn5n4)n3)C2C1 (stereo not shown) [Compound P-36, N-(3-(4-(5-(3-amino-6-(2-hydroxyphenyl)pyridazin-4-yl)hexahydropyrrolo[3,4-b]pyrrol-1(2H)-yl)pyrimidin-2-yl)prop-2-yn-1-yl)pyrazolo[1,5-a]pyrimidine-2-carboxamide] |
| 50 to 500 nM | ++ (++=30-70%) | 500 to 5000 nM | < 30% |  |  | C[C@@H]1CCN(c2cc(-c3ccccc3O)nnc2N)CCN1c1ccnc(C#CC2CCCO2)n1 (stereo partly drawn) [Compound P-211, o-{5-[(R)-5-methyl-4-{2-[2-(tetrahydro-2-furyl)ethynyl]-4-pyrimidinyl}-1,4-diazepan-1-yl]-6-amino-3-pyridaziny1} phenol] |
| 50 to 500 nM | +++ (+++=>70%) | 50 to 500 nM | 30 to 70% |  |  | C[C@@H]1CCN(c2cc(-c3ccccc3O)nnc2N)CCN1c1ccnc(C#CCN2C[C@@H]3C[C@H]2CO3)n1 [Compound P-200] |
| < 50 nM | +++ (+++=>70%) | < 50 nM | 30 to 70% |  |  | C[C@@H]1CCN(c2cc(-c3ccccc3O)nnc2N)CCN1c1ccnc(C#CCN2CC3CC2C3)n1 [Compound P-234, o-{5-[(R)-4-(2-{3-(2-azabicyclo[2.1.1]hex-2-yl)-1-propynyl}-4-pyrimidinyl)-5-methyl-1,4-diazepan-1-yl]-6-amino-3-pyridazinyl}phenol] |
| 50 to 500 nM |  | < 50 nM |  | ++ (++=30-70%) | 30 to 70% | CN(C)CC#Cc1cc(N2C[C@@H]3CN(c4cc(-c5ccccc5O)nnc4N)C[C@@H]3C2)ccn1 [Compound P-389, 0-{5-[(1R,5S)-7-{2-[3-(dimethylamino)-1-propynyl]-4-pyridyl}-3,7-diazabicyclo[3.3.0]oct-3-yl]-6-amino-3-pyridazinyl} phenol] |
| 50 to 500 nM | ++ (++=30-70%) | 50 to 500 nM | 30 to 70% |  |  | C[C@H]1CN(c2ccnc(C#CCNc3ccn(C)n3)n2)CCN1c1cc(-c2ccccc2O)nnc1N [Compound P-328, 0-{5-[(S)-2-methyl-4-{2-[3-(1-methyl-3-pyrazolylamino)-1-propynyl]-4-pyrimidinyl}-1-piperazinyl]-6-amino-3-pyridazinyl}phenol] |
